Data: article PMC10954709, “Structure of an open KATP channel reveals tandem PIP2 binding sites mediating the Kir6.2 and SUR1 regulatory interface” (Nature Communications, 2024)

What was measured:
[1] = tested on: KATP channel with engineered Kir6.2-Q52/SUR1-E203 charged amino acid pair; parameters: method as in PMID 22802363; details: engineered charged amino acid pair enforcing Kir6.2-Q52 and SUR1-E203 interaction; cited from earlier work
[2] = molecular target: T1, SUR1^W51C/Kir6.2 channel (UniProt P70673+Q09427, W51C); assay: ATP inhibition, inside-out patch-clamp recording, COSm6 cells; format: biochemical, rat Kir6.2, hamster SUR1; details: for % current: mean, relative to maximum current in K-INT
T1 construct: expressed in transfected cells; host or cells: COSm6
T1 sequence (P70673 whole entry): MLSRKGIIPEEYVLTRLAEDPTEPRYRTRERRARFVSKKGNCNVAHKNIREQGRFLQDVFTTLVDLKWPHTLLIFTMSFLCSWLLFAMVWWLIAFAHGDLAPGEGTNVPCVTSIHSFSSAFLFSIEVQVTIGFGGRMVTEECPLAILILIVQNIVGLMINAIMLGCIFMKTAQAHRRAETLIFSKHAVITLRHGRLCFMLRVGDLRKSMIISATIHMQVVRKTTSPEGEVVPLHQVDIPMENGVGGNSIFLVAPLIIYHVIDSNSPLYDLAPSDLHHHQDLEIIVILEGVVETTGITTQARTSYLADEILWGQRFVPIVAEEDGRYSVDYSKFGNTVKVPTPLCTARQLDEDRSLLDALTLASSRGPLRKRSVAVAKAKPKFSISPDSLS
T1 sequence (Q09427 whole entry W51C): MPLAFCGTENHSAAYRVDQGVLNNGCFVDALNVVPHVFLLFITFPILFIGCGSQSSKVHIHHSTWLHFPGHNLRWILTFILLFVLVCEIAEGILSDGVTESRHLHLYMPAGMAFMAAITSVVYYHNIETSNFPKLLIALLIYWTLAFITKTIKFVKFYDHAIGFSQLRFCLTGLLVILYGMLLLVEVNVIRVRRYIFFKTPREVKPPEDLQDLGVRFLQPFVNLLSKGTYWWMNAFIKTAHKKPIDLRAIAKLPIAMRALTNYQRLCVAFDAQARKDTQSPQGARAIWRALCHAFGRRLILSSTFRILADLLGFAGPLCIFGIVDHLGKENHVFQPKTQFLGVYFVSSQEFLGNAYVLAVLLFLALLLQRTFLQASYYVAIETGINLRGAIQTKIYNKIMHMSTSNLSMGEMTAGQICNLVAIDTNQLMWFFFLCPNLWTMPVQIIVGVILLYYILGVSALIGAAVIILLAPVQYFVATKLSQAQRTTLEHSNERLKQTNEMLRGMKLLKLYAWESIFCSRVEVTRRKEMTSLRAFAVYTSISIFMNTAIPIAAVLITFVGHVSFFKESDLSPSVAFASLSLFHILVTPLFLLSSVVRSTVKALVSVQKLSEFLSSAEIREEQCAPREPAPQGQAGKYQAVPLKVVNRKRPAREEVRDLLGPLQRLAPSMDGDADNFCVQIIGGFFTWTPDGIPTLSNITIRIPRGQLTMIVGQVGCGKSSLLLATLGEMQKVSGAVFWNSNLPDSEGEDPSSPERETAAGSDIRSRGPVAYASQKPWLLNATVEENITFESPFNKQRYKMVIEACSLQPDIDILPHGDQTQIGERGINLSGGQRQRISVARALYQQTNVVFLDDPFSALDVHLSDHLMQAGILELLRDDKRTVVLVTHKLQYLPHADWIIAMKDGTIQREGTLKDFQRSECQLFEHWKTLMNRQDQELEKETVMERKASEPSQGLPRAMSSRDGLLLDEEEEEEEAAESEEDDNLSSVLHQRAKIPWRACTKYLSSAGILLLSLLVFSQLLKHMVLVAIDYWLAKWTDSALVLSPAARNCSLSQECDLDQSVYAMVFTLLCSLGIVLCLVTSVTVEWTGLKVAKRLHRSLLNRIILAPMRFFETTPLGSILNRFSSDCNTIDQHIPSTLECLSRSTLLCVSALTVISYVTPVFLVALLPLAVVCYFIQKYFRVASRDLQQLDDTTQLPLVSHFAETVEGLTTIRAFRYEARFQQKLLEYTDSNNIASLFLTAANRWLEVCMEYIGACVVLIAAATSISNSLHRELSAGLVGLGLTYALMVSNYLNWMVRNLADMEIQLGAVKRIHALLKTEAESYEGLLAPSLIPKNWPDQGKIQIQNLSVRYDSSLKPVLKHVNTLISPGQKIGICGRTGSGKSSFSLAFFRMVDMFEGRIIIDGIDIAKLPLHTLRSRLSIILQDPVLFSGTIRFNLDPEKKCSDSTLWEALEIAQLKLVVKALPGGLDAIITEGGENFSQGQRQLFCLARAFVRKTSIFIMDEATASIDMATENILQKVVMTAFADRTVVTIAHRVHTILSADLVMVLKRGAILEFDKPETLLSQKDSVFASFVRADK
Method: (§1) For electrophysiology experiments, COSm6 cells were co-transfected with various combination of WT or mutant SUR1 and Kir6.2 cDNAs (SUR1 in pECE and Kir6.2 in pCDNA3) along with the cDNA for the Green Fluorescent Protein (to facilitate identification of transfected cells) using FuGENE® 6 (Promega). Mutant SUR1 and Kir6.2 were constructed using QuikChange (mutagenesis primers are shown in Supplementary Table 2). Cells were plated onto glass coverslips 24 h after transfection and recordings made in the following two days. All experiments were performed at room temperature. Micropipettes were pulled from non-heparinized Kimble glass (Fisher Scientific) on a horizontal puller (Sutter Instrument). Electrode resistance was typically 1-2 MΩ when filled with K-INT solution containing 140 mM KCl, 10 mM K-HEPES, 1 mM K-EGTA, 1 mM EDTA, pH 7.3. ATP was added as the potassium salt. Inside-out patches of cells bathed in K-INT were voltage-clamped with an Axopatch 1D amplifier (Axon Instruments). ATP or porcine brain PIP2 (Avanti Polar Lipids; prepared in K-INT and bath sonicated in ice water for 30 min before use) were added to K-INT as specified in the figure legend. All currents were measured at a membrane potential of −50 mV (pipette voltage = +50 mV). Data were analyzed using pCLAMP10 software (Axon Instrument). Off-line analysis was performed using Clampfit and GraphPad. Data were presented as mean ± standard error of the mean (S.E.M). ATP inhibition dose-response curves were obtained by fitting data to the Hill equation (Irel = 1/(1 + ([ATP]/IC50)^H)), where Irel is the current relative to the maximum currents in K-INT solution (expressed as % current in Fig. 7c and Supplementary Fig. 7a), IC50 is the ATP concentration that causes half-maximal inhibition, and H is the Hill coefficient. Note H was allowed to vary for the curves shown in Fig. 7c and Supplementary Fig. 7a.

[3] = molecular target: T2, SUR1/Kir6.2^Q52R/R176A channel (UniProt P70673+Q09427, Q52R/R176A); assay: as above; format: biochemical, rat Kir6.2, hamster SUR1; details: for % current: mean, relative to maximum current in K-INT
T2 construct: expressed in transfected cells; host or cells: COSm6
T2 sequence (Q09427 whole entry): as the sequence (Q09427 whole entry W51C) above, with C51W counted along it
T2 sequence (P70673 whole entry Q52R/R176A): as the sequence (P70673 whole entry) above, with Q52R, R176A counted along it
Method: as §1

[4] = molecular target: T3, SUR1/Kir6.2^R176A channel (UniProt P70673+Q09427, R176A); assay: as above; format: biochemical, rat Kir6.2, hamster SUR1; details: for % current: mean, relative to maximum current in K-INT
T3 construct: expressed in transfected cells; host or cells: COSm6
T3 sequence (Q09427 whole entry): as the sequence (Q09427 whole entry W51C) above, with C51W counted along it
T3 sequence (P70673 whole entry R176A): as the sequence (P70673 whole entry) above, with R176A counted along it
Method: as §1

[5] = molecular target: T4, SUR1^K134A/Kir6.2^Q52R/R176A channel (UniProt P70673+Q09427, K134A/Q52R/R176A); assay: as above; format: biochemical, rat Kir6.2, hamster SUR1; details: for % current: relative to maximum current in K-INT
T4 construct: expressed in transfected cells; host or cells: COSm6
T4 sequence (Q09427 whole entry K134A): as the sequence (Q09427 whole entry W51C) above, with C51W, K134A counted along it
T4 sequence (P70673 whole entry Q52R/R176A): as the sequence (P70673 whole entry) above, with Q52R, R176A counted along it
Method: as §1

[6] = molecular target: T5, WT (SUR1/Kir6.2) KATP channels (UniProt P70673+Q09427); assay: as above; format: biochemical, rat Kir6.2, hamster SUR1; details: for % current: mean, relative to maximum current in K-INT
T5 construct: expressed in transfected cells; host or cells: COSm6
T5 sequence (P70673 whole entry): as the sequence (P70673 whole entry) above
T5 sequence (Q09427 whole entry): as the sequence (Q09427 whole entry W51C) above, with C51W counted along it
Method: as §1

[7] = molecular target: T6, SUR1^W51C/Kir6.2^Q52R channel (UniProt P70673+Q09427, Q52R/W51C); assay: as above; format: biochemical, rat Kir6.2, hamster SUR1; details: for % current: mean, relative to maximum current in K-INT
T6 construct: expressed in transfected cells; host or cells: COSm6
T6 sequence (P70673 whole entry Q52R): as the sequence (P70673 whole entry) above, with Q52R counted along it
T6 sequence (Q09427 whole entry W51C): as the sequence (Q09427 whole entry W51C) above
Method: as §1

[8] = molecular target: T7, SUR1^K134A/Kir6.2^Q52R channel (UniProt P70673+Q09427, K134A/Q52R); assay: as above; format: biochemical, rat Kir6.2, hamster SUR1; details: for % current: mean, relative to maximum current in K-INT
T7 construct: expressed in transfected cells; host or cells: COSm6
T7 sequence (P70673 whole entry Q52R): as the sequence (P70673 whole entry) above, with Q52R counted along it
T7 sequence (Q09427 whole entry K134A): as the sequence (Q09427 whole entry W51C) above, with C51W, K134A counted along it
Method: as §1

[9] = molecular target: T8, SUR1/Kir6.2^Q52R channel (UniProt P70673+Q09427, Q52R); assay: as above; format: biochemical, rat Kir6.2, hamster SUR1; details: for % current: mean, relative to maximum current in K-INT
T8 construct: expressed in transfected cells; host or cells: COSm6
T8 sequence (P70673 whole entry Q52R): as the sequence (P70673 whole entry) above, with Q52R counted along it
T8 sequence (Q09427 whole entry): as the sequence (Q09427 whole entry W51C) above, with C51W counted along it
Method: as §1

[10] = molecular target: T9, SUR1^K134A/Kir6.2 channel (UniProt P70673+Q09427, K134A); assay: as above; format: biochemical, rat Kir6.2, hamster SUR1; details: for % current: mean, relative to maximum current in K-INT
T9 construct: expressed in transfected cells; host or cells: COSm6
T9 sequence (Q09427 whole entry K134A): as the sequence (Q09427 whole entry W51C) above, with C51W, K134A counted along it
T9 sequence (P70673 whole entry): as the sequence (P70673 whole entry) above
Method: as §1

[11] = tested on: Kir6.2^Q52R KATP channel; parameters: method as in PMID 16123353, PMID 15583126; details: Kir6.2^Q52R relative to WT; cited from earlier work
[12] = mean ± SEM, Hill fit, −50 mV, K-INT

## Nc1ncnc2c1ncn2[C@@H]1O[C@H](COP(=O)(O)OP(=O)(O)OP(=O)(O)O)[C@@H](O)[C@H]1O [ATP]
[1]
  reduction of ATP inhibition IC50: 100 fold
[2]; ATP 1 μM
  % current: 94.89%
[2]; ATP 10 μM
  % current: 75.92%
[2]; ATP 100 μM
  % current: 6.20%
[2]; ATP 200 μM
  % current: 6.36%
[2]; ATP 1 mM
  % current: 1.93%
[2]; ATP 2 mM
  % current: 3.08%
[2]; ATP 5 mM
  % current: 0%
[2]; [12]
  IC50: 20.9 ± 1.96 µM
[3]; ATP 1 μM
  % current: 93.65%
[3]; ATP 10 μM
  % current: 70.34%
[3]; ATP 100 μM
  % current: 6.88%
[3]; ATP 200 μM
  % current: 3.51%
[3]; ATP 1 mM
  % current: 0.92%
[3]; ATP 2 mM
  % current: 0.12%
[3]; Hill fit, H allowed to vary
  Hill coefficient (H) of ATP inhibition: 1.41
[3]; [12]
  IC50: 18 ± 1.2 µM
[4]; ATP 1 μM
  % current: 83.45%
[4]; ATP 10 μM
  % current: 56.97%
[4]; ATP 100 μM
  % current: 7.94%
[4]; ATP 1 mM
  % current: 6.02%
[4]; ATP 2 mM
  % current: 1.48%
[4]; Hill fit, H allowed to vary
  Hill coefficient (H) of ATP inhibition: 0.84
[4]; [12]
  IC50: 11.3 ± 1.95 µM
[5]; ATP 1 μM, one cell
  % current: 40.58%
[5]; ATP 10 μM, mean
  % current: 44.57%
[5]; ATP 100 μM, mean
  % current: 4.58%
[5]; ATP 1 mM, mean
  % current: -0.08%
[5]; ATP 5 mM, mean
  % current: 0.00%
[5]; Hill fit, H allowed to vary
  Hill coefficient (H) of ATP inhibition: 1.18
[5]; [12]
  IC50: 8.3 ± 1.11 µM
[6]; ATP 1 μM
  % current: 84.78%
[6]; ATP 10 μM
  % current: 39.13%
[6]; ATP 100 μM
  % current: 7.09%
[6]; ATP 200 μM
  % current: 3.13%
[6]; ATP 1 mM
  % current: 4.17%
[6]; ATP 2 mM
  % current: 0.65%
[6]; ATP 5 mM
  % current: 2.98%
[6]; Hill fit, H allowed to vary
  Hill coefficient (H) of ATP inhibition: 0.93
[6]; [12]
  IC50: 6.25 ± 0.44 µM
[7]; ATP 1 μM
  % current: 97.59%
[7]; ATP 10 μM
  % current: 45.50%
[7]; ATP 100 μM
  % current: 6.41%
[7]; ATP 1 mM
  % current: 1.99%
[7]; ATP 2 mM
  % current: 0.62%
[7]; ATP 5 mM
  % current: 1.82%
[7]; [12]
  IC50: 8.98 ± 0.49 µM
[8]; ATP 1 μM
  % current: 98.42%
[8]; ATP 10 μM
  % current: 90.13%
[8]; ATP 100 μM
  % current: 32.09%
[8]; ATP 200 μM
  % current: 5.40%
[8]; ATP 1 mM
  % current: 0.80%
[8]; ATP 5 mM
  % current: 0.06%
[8]; Hill fit, H allowed to vary
  Hill coefficient (H) of ATP inhibition: 1.55
[8]; [12]
  IC50: 54.1 ± 7.14 µM
[9]; ATP 10 μM
  % current: 94.34%
[9]; ATP 100 μM
  % current: 77.97%
[9]; ATP 200 μM
  % current: 34.77%
[9]; ATP 1 mM
  % current: 15.08%
[9]; ATP 2 mM
  % current: 2.12%
[9]; ATP 5 mM
  % current: 2.88%
[9]; Hill fit, H allowed to vary
  Hill coefficient (H) of ATP inhibition: 2.34
[9]; [12]
  IC50: 161 ± 16.2 µM
[10]; ATP 1 μM
  % current: 90.28%
[10]; ATP 10 μM
  % current: 19.80%
[10]; ATP 100 μM
  % current: 5.33%
[10]; ATP 200 μM
  % current: 0.84%
[10]; ATP 1 mM
  % current: 0.93%
[10]; ATP 2 mM
  % current: 0.25%
[10]; Hill fit, H allowed to vary
  Hill coefficient (H) of ATP inhibition: 1.54
[10]; [12]
  IC50: 4.12 ± 0.3 µM
[11]
  decrease in channel sensitivity to ATP inhibition: 20 fold
